Results from publication PMC7259601 (PLoS ONE, 2020).
Where two headings read alike, the source gives them in different places.

Experiments:
[1] = test system: guanylyl cyclase (h) (activator effect); assay: CEREP Diversity Panel; type: biochemical, human; parameters: dose or concentration left out as unconfirmed
Procedure: (§1) […]. MAO-A inhibition at 10 μM was 37%, in line with internal data.

[2] = biological target: T1, PNMT (phenylethanolamine N-methyl transferase) (Bos taurus, UniProt P10938); assay: CEREP Diversity Panel; type: biochemical
T1 construct: purchased CEREP (Eurofins Cerep)
Procedure: as §1

[3] = biological target: T2, CENP-E (h) (Homo sapiens, UniProt Q02224); assay: CEREP Diversity Panel; type: biochemical
T2 construct: purchased CEREP (Eurofins Cerep)
T2 sequence (Q02224 whole entry): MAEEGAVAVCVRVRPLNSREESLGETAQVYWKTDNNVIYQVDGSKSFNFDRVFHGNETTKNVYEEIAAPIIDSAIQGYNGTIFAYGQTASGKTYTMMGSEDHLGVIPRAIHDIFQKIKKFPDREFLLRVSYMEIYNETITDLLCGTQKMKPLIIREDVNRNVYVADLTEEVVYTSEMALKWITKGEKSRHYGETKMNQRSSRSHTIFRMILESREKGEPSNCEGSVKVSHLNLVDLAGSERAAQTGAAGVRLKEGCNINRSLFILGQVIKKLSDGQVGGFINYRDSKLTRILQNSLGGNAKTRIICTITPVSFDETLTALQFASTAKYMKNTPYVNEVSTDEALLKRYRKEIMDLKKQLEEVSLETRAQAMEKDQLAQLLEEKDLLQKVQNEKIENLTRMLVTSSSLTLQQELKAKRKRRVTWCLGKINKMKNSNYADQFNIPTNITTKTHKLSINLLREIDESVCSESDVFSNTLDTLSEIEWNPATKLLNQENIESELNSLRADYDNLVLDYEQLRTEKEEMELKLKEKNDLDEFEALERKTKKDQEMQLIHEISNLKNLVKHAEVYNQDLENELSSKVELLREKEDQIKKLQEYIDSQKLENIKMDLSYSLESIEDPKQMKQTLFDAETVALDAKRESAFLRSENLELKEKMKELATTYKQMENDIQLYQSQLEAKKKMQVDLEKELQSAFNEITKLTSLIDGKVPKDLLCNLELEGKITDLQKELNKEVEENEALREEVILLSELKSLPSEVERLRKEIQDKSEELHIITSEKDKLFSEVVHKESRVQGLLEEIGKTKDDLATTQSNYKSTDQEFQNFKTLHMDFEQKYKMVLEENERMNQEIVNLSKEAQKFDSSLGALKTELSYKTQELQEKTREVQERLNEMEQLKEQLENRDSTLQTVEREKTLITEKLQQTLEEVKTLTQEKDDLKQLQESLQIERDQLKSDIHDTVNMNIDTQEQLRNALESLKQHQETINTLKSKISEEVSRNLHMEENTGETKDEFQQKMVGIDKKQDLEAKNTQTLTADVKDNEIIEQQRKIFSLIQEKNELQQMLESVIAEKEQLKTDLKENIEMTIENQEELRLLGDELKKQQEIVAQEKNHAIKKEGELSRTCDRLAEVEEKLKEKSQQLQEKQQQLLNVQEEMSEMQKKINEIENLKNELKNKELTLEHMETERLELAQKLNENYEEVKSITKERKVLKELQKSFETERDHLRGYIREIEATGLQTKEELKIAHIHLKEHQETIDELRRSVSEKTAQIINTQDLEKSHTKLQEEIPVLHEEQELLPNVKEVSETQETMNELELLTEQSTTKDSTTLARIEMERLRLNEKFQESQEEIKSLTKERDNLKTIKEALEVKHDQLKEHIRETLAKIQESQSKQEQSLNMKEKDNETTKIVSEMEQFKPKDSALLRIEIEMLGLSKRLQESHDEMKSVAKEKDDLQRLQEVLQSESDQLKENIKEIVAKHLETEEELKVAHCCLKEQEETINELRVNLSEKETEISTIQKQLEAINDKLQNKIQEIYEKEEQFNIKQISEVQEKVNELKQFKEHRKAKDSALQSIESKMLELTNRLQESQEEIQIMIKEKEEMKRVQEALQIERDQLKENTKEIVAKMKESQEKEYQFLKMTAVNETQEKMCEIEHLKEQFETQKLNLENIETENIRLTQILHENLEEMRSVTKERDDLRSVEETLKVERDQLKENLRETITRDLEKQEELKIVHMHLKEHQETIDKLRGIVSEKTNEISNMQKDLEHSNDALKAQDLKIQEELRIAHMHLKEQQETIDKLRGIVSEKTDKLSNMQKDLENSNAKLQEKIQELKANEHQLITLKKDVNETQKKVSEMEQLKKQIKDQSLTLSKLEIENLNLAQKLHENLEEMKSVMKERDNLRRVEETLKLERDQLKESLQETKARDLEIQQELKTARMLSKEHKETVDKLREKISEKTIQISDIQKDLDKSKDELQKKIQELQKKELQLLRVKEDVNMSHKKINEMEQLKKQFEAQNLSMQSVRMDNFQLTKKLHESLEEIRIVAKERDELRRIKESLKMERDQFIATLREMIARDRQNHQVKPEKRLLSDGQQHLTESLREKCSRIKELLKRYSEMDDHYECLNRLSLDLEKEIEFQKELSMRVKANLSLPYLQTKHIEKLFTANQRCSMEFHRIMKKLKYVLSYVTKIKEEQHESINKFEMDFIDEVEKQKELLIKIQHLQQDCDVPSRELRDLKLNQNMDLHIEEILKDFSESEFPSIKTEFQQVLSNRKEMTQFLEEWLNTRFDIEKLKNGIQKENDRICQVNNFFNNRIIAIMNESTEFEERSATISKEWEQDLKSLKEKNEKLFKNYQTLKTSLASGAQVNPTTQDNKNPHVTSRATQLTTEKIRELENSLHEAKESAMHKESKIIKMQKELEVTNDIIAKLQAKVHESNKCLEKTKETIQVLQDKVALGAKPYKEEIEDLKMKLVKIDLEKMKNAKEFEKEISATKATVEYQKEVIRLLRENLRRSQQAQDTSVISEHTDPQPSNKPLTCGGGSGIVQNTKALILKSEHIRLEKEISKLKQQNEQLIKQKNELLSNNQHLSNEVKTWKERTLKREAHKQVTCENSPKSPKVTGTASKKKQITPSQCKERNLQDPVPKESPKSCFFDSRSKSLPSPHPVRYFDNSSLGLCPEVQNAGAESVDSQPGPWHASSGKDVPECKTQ
Procedure: as §1

[4] = biological target: T3, phosphatase 1B (h) (PTP1B) (Homo sapiens, UniProt P18031); assay: CEREP Diversity Panel; type: biochemical
T3 construct: purchased CEREP (Eurofins Cerep)
Procedure: as §1

[5] = biological target: T4, PKCa (h) (Homo sapiens, UniProt P17252); assay: CEREP Diversity Panel; type: biochemical
T4 construct: purchased CEREP (Eurofins Cerep)
Procedure: as §1

[6] = biological target: T5, MAO- A (h) (Homo sapiens, UniProt P21397); assay: CEREP Diversity Panel; type: biochemical
T5 construct: purchased CEREP (Eurofins Cerep)
T5 sequence (P21397 whole entry): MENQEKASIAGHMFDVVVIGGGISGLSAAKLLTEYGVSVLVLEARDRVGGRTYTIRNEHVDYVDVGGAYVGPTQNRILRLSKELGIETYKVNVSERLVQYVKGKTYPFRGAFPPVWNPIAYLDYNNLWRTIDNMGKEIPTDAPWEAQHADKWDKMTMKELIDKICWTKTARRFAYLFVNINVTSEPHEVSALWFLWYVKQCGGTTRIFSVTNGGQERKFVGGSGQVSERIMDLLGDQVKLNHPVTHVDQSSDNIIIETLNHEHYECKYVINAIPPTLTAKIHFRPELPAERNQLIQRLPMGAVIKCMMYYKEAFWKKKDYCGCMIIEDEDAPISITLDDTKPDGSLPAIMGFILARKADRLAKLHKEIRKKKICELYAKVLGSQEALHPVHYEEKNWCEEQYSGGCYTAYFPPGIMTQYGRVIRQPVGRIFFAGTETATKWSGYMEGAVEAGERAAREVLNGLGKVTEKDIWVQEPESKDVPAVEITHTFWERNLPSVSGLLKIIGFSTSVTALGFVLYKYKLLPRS
Procedure: as §1

[7] = biological target: T6, tyrosine hydroxylase (Rattus norvegicus, UniProt P04177); assay: CEREP Diversity Panel; type: biochemical
T6 construct: purchased CEREP (Eurofins Cerep)
Procedure: as §1

[8] = biological target: PDE2A1 (h) (Homo sapiens, UniProt O00408); assay: CEREP Diversity Panel; type: biochemical
Procedure: as §1

[9] = biological target: T7, PDE1B (h) (Homo sapiens, UniProt Q01064); assay: CEREP Diversity Panel; type: biochemical
T7 construct: purchased CEREP (Eurofins Cerep)
Procedure: as §1

[10] = biological target: T8, 5-lipoxygenase (h) (Homo sapiens, UniProt P09917); assay: CEREP Diversity Panel; type: biochemical
T8 construct: purchased CEREP (Eurofins Cerep)
Procedure: as §1

[11] = biological target: T9, PDE3A (h) (Homo sapiens, UniProt Q14432); assay: CEREP Diversity Panel; type: biochemical
T9 construct: purchased CEREP (Eurofins Cerep)
Procedure: as §1

[12] = biological target: T10, phosphatase CDC25A (h) (Homo sapiens, UniProt P30304); assay: CEREP Diversity Panel; type: biochemical
T10 construct: purchased CEREP (Eurofins Cerep)
Procedure: as §1

[13] = biological target: T11, GABA transaminase (Rattus norvegicus, UniProt P50554); assay: CEREP Diversity Panel; type: biochemical
T11 construct: purchased CEREP (Eurofins Cerep)
Procedure: as §1

[14] = biological target: T12, Eg5 (h) (Homo sapiens, UniProt P52732); assay: CEREP Diversity Panel; type: biochemical
T12 construct: purchased CEREP (Eurofins Cerep)
Procedure: as §1

[15] = biological target: T13, acetylcholinesterase (h) (Homo sapiens, UniProt P22303); assay: CEREP Diversity Panel; type: biochemical
T13 construct: purchased CEREP (Eurofins Cerep)
Procedure: as §1

[16] = biological target: JMJD1A (h) (Homo sapiens, UniProt Q9Y4C1); assay: Epigenetic selectivity profile; type: biochemical
Procedure: as §1

[17] = biological target: HDAC4 (h) (Homo sapiens, UniProt P56524); assay: Epigenetic selectivity profile; type: biochemical
Chain of HDAC4 (h) (P56524 whole entry): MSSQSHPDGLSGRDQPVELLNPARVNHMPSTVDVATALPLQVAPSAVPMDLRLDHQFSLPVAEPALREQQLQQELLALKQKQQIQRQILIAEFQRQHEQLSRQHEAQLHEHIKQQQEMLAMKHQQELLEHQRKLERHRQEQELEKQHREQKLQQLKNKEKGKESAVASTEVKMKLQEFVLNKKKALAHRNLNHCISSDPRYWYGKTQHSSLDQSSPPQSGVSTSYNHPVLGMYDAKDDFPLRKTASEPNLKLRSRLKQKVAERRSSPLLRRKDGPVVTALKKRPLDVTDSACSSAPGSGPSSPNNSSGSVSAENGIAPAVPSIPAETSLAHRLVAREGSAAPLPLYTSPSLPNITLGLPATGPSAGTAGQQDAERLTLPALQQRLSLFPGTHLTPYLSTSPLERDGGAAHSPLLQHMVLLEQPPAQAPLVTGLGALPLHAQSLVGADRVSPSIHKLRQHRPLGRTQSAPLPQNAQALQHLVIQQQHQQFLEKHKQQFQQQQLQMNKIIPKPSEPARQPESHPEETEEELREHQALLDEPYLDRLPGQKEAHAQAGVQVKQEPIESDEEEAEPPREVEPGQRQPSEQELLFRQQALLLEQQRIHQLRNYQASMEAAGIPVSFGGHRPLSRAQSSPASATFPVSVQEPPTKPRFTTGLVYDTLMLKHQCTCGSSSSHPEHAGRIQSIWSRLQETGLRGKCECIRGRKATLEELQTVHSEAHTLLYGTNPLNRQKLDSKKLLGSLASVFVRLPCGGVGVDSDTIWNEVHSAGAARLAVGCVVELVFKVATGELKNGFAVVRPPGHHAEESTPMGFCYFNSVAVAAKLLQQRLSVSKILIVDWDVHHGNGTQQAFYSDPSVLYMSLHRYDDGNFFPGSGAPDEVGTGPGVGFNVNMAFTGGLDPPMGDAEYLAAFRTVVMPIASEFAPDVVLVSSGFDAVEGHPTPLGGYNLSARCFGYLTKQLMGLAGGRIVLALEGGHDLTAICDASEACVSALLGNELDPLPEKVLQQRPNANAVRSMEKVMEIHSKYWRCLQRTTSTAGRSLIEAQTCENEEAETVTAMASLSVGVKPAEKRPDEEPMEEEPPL
Procedure: as §1

[18] = biological target: SETD7 (h) (Homo sapiens, UniProt Q8WTS6); assay: Epigenetic selectivity profile; type: biochemical
Procedure: as §1

[19] = biological target: JMJD3 (h) (Homo sapiens, UniProt O15054); assay: Epigenetic selectivity profile; type: biochemical
Procedure: as §1

[20] = biological target: HDAC3 (h) (Homo sapiens, UniProt O15379); assay: Epigenetic selectivity profile; type: biochemical
Chain of HDAC3 (h) (O15379 whole entry): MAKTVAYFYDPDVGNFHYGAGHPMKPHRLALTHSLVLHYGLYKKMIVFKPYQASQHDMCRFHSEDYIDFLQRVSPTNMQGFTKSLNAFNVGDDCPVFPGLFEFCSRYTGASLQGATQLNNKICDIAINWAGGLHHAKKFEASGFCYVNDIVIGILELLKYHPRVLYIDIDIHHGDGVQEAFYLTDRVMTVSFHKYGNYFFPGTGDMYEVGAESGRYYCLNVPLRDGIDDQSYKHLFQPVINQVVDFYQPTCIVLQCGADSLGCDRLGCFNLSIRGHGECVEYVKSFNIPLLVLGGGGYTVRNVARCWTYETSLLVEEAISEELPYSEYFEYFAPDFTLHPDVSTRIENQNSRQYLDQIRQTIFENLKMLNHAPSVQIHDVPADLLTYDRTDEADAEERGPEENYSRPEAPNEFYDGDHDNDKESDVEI
Chain of HDAC3 (h) (Q9Y618 395-489 partner limits assumed): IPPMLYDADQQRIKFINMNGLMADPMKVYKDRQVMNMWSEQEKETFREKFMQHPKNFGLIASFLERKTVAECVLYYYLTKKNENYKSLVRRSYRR
Procedure: as §1

[21] = biological target: (h)p300 (Homo sapiens, UniProt Q09472); assay: Epigenetic selectivity profile; type: biochemical
Procedure: as §1

[22] = biological target: DNMT1 (h) (Homo sapiens, UniProt P26358); assay: Epigenetic selectivity profile; type: biochemical
Procedure: as §1

[23] = biological target: FBXL10 (h) (Homo sapiens, UniProt Q8NHM5); assay: Epigenetic selectivity profile; type: biochemical
Procedure: as §1

[24] = biological target: sirtuin 2 (h) (Homo sapiens, UniProt Q8IXJ6); assay: Epigenetic selectivity profile; type: biochemical
Procedure: as §1

[25] = test system: SAMP8 mice; assay: Three Chamber Test (TCT); type: in vivo, mouse; details: 0.96 mg/kg/day
Procedure: Both male and female mice from the senescence accelerated strain SAMP8 and its control SAMR1 of different ages (see Table S3 for details) were used in these studies. Mice were breed in the animal facilities of the Pharmacy Faculty (University of Barcelona), maintained in a at 22 ± 2 °C controlled temperature in a 12 hr light / dark cycle (lights on at 8:00 am; 300 lux/0 lux) with ad libitum access to food (2018 TEKLAD, Harlan) and water. Male mice were housed individually (males) or in groups of 4-5 animals (females) in plastic colony boxes with a sawdust bedding material. […] SAMR1 mice treated with vehicle were included as a control. All drugs were administered via drinking water and diluted in vehicle. Drug concentration was calculated weekly in function of body weight and corrected in function of drinking water consumption. Cognitive function was evaluated by NORT, social behavior was evaluated by RI and anxiety and motor function were evaluated by EPM and OF. […]
The test was performed in a Plexiglas transparent box with three identical consecutive chambers (15 x 15 x 20 cm). […] This habituation time was monitored to avoid animals showing preference for one of the chambers. […] The time spent in each chamber and the time of direct exploration of the novel mice was measured.
Three Chamber Test (TCT): Mice were recorded for 5 min during habituation and an additional X min to run the test. […]

[26] = test system: 19 epigenetic targets; assay: Panel of 19 epigenetic targets; type: biochemical; details: 10 μM
Procedure: as §1

Nc1nnc(CN[C@@H]2C[C@H]2c2ccc(OCc3ccccc3)cc2)o1 [ORY-2001, vafidemstat]
% inhibition [1]: 1% | inhibition at 10 µM [2]: 1% | inhibition at 10 µM [3]: 3% | inhibition at 10 µM [4]: 2% | inhibition at 10 µM [5]: 4% | inhibition at 10 µM ([6]; 10 μM, read-out: MAO-A inhibition): 37% | inhibition at 10 µM ([6]; at 10 µM, read-out: % inhibition): 37% | inhibition at 10 µM [7]: -12% | inhibition at 10 µM [8]: -2% | inhibition at 10 µM [9]: 7% | inhibition at 10 µM [10]: 3% | inhibition at 10 µM [11]: 1% | inhibition at 10 µM [12]: 5% | inhibition at 10 µM [13]: 8% | inhibition at 10 µM [14]: -3% | inhibition at 10 µM [15]: -4% | inhibition at 10 µM [16]: -11% | inhibition at 10 µM [17]: 0% | inhibition at 10 µM [18]: -3% | inhibition at 10 µM [19]: 4% | inhibition at 10 µM [20]: -1% | inhibition at 10 µM [21]: 0% | inhibition at 10 µM [22]: 15% | inhibition at 10 µM [23]: 8% | inhibition at 10 µM [24]: 5% | time exploring mice introduced in the cage ([25]; 12 month old female): restored the time SAMP8 spent exploring mice | preference for the chamber with the novel mice ([25]; female): restored the normal preference | % inhibition, any of 19 epigenetic targets [26]: ≤ 15%
